For `O=C(Nc1ccccn1)c1n[nH]c2c1C(=O)CCC2` [Example 3, 4-Oxo-4,5,6,7-tetrahydro-1H-indazole-3-carboxylic acid pyridin-2-ylamide], the melting point was 250 °C (dec.).

In the case of `O=C(Nc1ccccc1)c1n[nH]c2c1C(=O)CCC2` [Example 1, 4-Oxo-4,5,6,7-tetrahydro-1H-indazole-3-carboxylic acid phenylamide], the melting point is reported as 244 °C (dec.).

In the case of `NCCc1ccc(NC(=O)c2n[nH]c3c2C(=O)CCC3)cc1` [Example 5, 4-Oxo-4,5,6,7-tetrahydro-1H-indazole-3-carboxylic acid 4-(2-aminoethyl)phenylamide], the melting point is reported as 250 °C (dec.).
